Experiments:
[1] = tested on: capillary endothelial cells; settings: in vitro, capillary endothelial cells plated on fibronectin-coated dishes; cited from earlier work
[2] = tested on: IRE-1; assay: Unfolded protein response, western blot of IRE-1; type: cell-based, bovine; settings: FIG. 5
Description: (§1) The capillary endothelial cells were from the laboratory stock of a non-transformed endothelial cell line from bovine adrenal medulla and maintained as previously described. Synchronized cultures (33) were treated with Tunicamycin nanoparticles (1 μg/ml) for 1 h in EMEM containing 2% fetal bovine serum (heat inactivated).
(§2) Performed as before with 7.5% gel concentration.
(§3) It has been observed recently that Tunicamycin inhibits angiogenesis in vitro and in vivo as well as during the breast tumor progression by ER stress-mediated induction of unfolded protein response. In addition, it has also been shown that Tunicamycin gold nanoparticles inhibit capillary endothelial cell cycle progression much more effectively than native Tunicamycin. It was also evaluated if Tunicamycin gold nanoparticles would also activate the pathway that induces the unfolded protein response. The results shown in FIG. 5 indicate that Tunicamycin gold nanoparticles affect both transcription and translation.

[3] = tested on: phosphoPERK; assay: Unfolded protein response, western blot of phosphoPERK; type: cell-based, bovine; settings: FIG. 5
Description: as §1, §2, §3

[4] = tested on: capillary endothelial cells; assay: MTT assay, capillary endothelial cell viability; type: cell-based, bovine; settings: 1 μg/ml, 3 h at 37° C., FIG. 1
Description: as §1
Synchronized capillary endothelial cells were incubated with Tunicamycin (1 μg/ml) alone or with 1 μg/ml of Tunicamycin nanoparticles for 3 h at 37° C. in a CO2 incubator (5% CO2 and 95% air) in 96-well microtiter plates. At the end the plates were processed for the MTT Assay. The results shown in FIG. 1 indicate that the cell viability was reduced to almost 50% (p<0.001) when treated with Tunicamycin conjugated to 20 nm or 50 nm gold particles.

[5] = tested on: breast tumor; settings: athymic nude mice; cited from earlier work
[6] = tested on: GRP-78/Bip; settings: shown earlier; cited from earlier work
[7] = tested on: cyclin D1; assay: Western blot of cyclin D1 expression in capillary endothelial cells; type: cell-based, bovine; settings: 1 μg/ml, FIG. 2
Description: as §1, §2
(§4) To evaluate the biochemical pathway the Tunicamycin nanoparticles are likely to interfere, their effect on the cell cycle progression has been analyzed. The cell cycle antigens have been analyzed focusing primarily on the D-type cycline and their partners because Tunicamycin causes cell cycle arrest in G1. […] Expression of cyclin D1 and its catalytic partner, i.e., CDK4 was analyzed by western blotting. […] There was a little difference with the CDK4 expression. It was higher in cells treated with 20 nm gold particles […], but they both were much reduced compared to the untreated control or cells treated with native Tunicamycin as shown in FIG. 2. p53 is a gate keeper for the cell cycle. Upon phosphorylation p53 migrates to the nucleus and activates gene transcription.

[8] = tested on: angiogenesis; settings: in vitro/in vivo; cited from earlier work
[9] = tested on: p53p^ser392; assay: Western blot of p53 phosphorylated in serine392; type: cell-based, bovine; settings: FIG. 3
Description: as §1, §2, §4

[10] = tested on: CDK4; assay: Western blot of CDK4 expression in capillary endothelial cells; type: cell-based, bovine; settings: 1 μg/ml, FIG. 2, for the conjugates also compared to native Tunicamycin
Description: as §1, §2, §4

[11] = tested on: PERK; assay: Unfolded protein response, western blot of PERK; type: cell-based, bovine; settings: FIG. 5
Description: as §1, §2, §3

| Compound | formation of capillary tubes [1] | IRE-1 (transcriptional attenuator) activation [2] | phosphoPERK (translational attenuator) activation [3] | effect on capillary endothelial cell viability compared to the control [4] | breast tumor growth [5] | time of treatment at which ER stress is induced [6] | expression of cyclin D1 compared to the untreated control [7] | angiogenesis [8] | expression of p53 phosphorylated in serine392 (p53p^ser392) [9] | expression of CDK4 compared to the untreated control [10] | PERK activation [11] |
| --- | --- | --- | --- | --- | --- | --- | --- | --- | --- | --- | --- |
| O[C@H]1[C@H]2[C@H](O)CCCN2C[C@H]1O [swainsonine] | did not inhibit tube formation | – | – | – | – | – | – | – | – | – | – |
| OC[C@H]1NC[C@@H](O)[C@@H](O)[C@@H]1O [deoxymannojirimycin] | inhibited the formation of capillary tubes | – | – | – | – | – | – | – | – | – | – |
| Tunicamycin | – | either had no effect or the effect is drastically reduced | either had no effect or the effect is drastically reduced | does not show any effect | reduce the breast tumor growth | 3 h | enhanced | inhibit angiogenesis | no effect | enhanced | either had no effect or the effect is drastically reduced |

Reference: patent US8524685B1, “Anti-angiogenic therapeutics efficacy enhanced by nanoformulation” (University of Puerto Rico, priority 2010, dated 2013)
